# Source: patent publication US20250352608A1, “POLYPEPTIDES HAVING ANTI-INFLAMMATORY EFFECTS AND USES THEREOF” (OneSkin, Inc., priority 2020, published 2025)
# What was measured:
# [1] = system: peripheral blood mononuclear cells (PBMCs); assay: PBMC proliferation with PHA activation (MTT); format: cell-based, human; settings: single agent, 5 days (Peptide 14 3.12 μM; rapamycin 100 nM; PHA 5 μg/mL)
# Method: The effect of Peptide 14 on T cell activation was assessed by treating PBMCs stimulated with phytohaemagglutinin (PHA) with Peptide 14. PHA usually can trigger lymphocyte activation and cell division. PBMCs that were untreated with PHA or Peptide 14 served as negative control of lymphocyte activation. In the phytohaemagglutinin group, the PBMCs were activated with 5 μg/mL of PHA for 5 days. In the Peptide 14 and PHA group, the PBMCs were activated with 5 μg/mL of PHA and treated with 3.12 μM of Peptide 14 for 5 days. In the Peptide 14 group, the PBMCs were treated with 3.12 μM of Peptide 14 for 5 days. In the rapamycin group, the PBMCs were treated with 100 nM of rapamycin, a well-known immunosuppressive drug for 5 days. In the rapamycin+PHA group, the PBMCs were activated with 5 μg/mL of PHA and treated with 100 nM of rapamycin for 5 days. The viability and proliferation of PBMCs were analyzed by MTT assay. Briefly, after 5 days of treatment, the cells were incubated with […] MTT reagent for 4 hours. Then, 100 μL of DMSO was added into each well, and the absorbance was detected at 595 nm.
# [2] = system: peripheral blood mononuclear cells (PBMCs); assay: PBMC mRNA of IFN-γ and IL-10 (RT-qPCR); format: cell-based, human; settings: single agent, 5 days (Peptide 14 3.12 μM; rapamycin 100 nM; PHA 5 μg/mL)
# Method: The effect of Peptide 14 on T cell activation was assessed by treating PBMCs stimulated with phytohaemagglutinin (PHA) with Peptide 14. PHA usually can trigger lymphocyte activation and cell division. PBMCs that were untreated with PHA or Peptide 14 served as negative control of lymphocyte activation. In the phytohaemagglutinin group, the PBMCs were activated with 5 μg/mL of PHA for 5 days. In the Peptide 14 and PHA group, the PBMCs were activated with 5 μg/mL of PHA and treated with 3.12 μM of Peptide 14 for 5 days. In the Peptide 14 group, the PBMCs were treated with 3.12 μM of Peptide 14 for 5 days. In the rapamycin group, the PBMCs were treated with 100 nM of rapamycin, a well-known immunosuppressive drug for 5 days. In the rapamycin+PHA group, the PBMCs were activated with 5 μg/mL of PHA and treated with 100 nM of rapamycin for 5 days. […] IFN-γ is typically produced in lymphocytes stimulated by PHA and may be used as marker of PBMC stimulation level. IL-10 is an anti-inflammatory cytokine. The cells from each of the experimental groups were processed for total RNA isolation, reverse transcription of the RNA and RT-qPCR. Data is represented as relative expression normalized to ubiquitous gene expression and untreated PBMC negative control.
substance,measurement,setting,value
phytohaemagglutinin [PHA],"relative PBMC proliferation, % of negative control",[1],about 130%
same,relative expression level of IFN-γ vs negative control,[2],about 15 fold
same,relative expression level of IL-10 (negative control = 1),[2],near zero
